Test results as given in patent EP2368549A1, “Treating hand-foot syndrome and related pathologies using clonidine or its derivatives” (BioAlliance Pharma, priority 2010, dated 2011).

Key:
TNFα = conditions: culture supernatant, 24h after substance P addition; clonidine treatment before and during substance P stimulation (topical formulations 0.05%-1% on the epidermis)
From the text: (§1) Human biopsy samples of clinically healthy human skin were obtained from patients undergoing plastic surgery. All patients gave their written informed consent before the surgery has carried out.
(§2) Skin biopsies were cut into 1 cm2 full thickness pieces and washed three times with antibiotics. Subcutaneous fat and lower dermis were mechanically removed. Skin fragments were transferred onto permeable polycarbonate membrane transwells (12 mm diameter, 12 µm pore size) in a well of 12 well plate (as previously described Boisnic S. et al., [1-3]) containing 700µl of defined medium (DMEM, antibiotics, hormones, pituitary extract, FCS). Explants were maintained at the interface between air and medium with the epithelium uppermost and the dermis exposed to the media by diffusion through the porous membrane.
(§3) Cohesion between skin fragments and inserts was obtained with a polyvinylsiloxane addition type silicone elastomer seal (coltène® president) in such a way that no skin retraction or lateral passage of the product towards the dermis was possible.
(§4) The culture was set up for 36 hours in a humidified atmosphere containing 5% CO2 at 37°C, and medium was daily change, culture supernatants were frozen at -80°C until further analysis.
The stimulation of the experimental oral human skin inflammatory process was done by the neuropeptide substance P (SP) [1]. […]

[1] = system: human skin organotypic culture; conditions: histology of papillary and upper reticular dermis, 24h after substance P addition; clonidine treatment before and during substance P stimulation
From the text: as §1, §2, §3, §4
At the end of culture all human skin fragments were formalin fixed and paraffin embedded. […]

[2] = clinical trials of breast or colorectal cancer; cited from earlier work

SMILES | proinflammatory cytokines TNFα level (TNFα) | skin oedema [1] | vasodilatation [1] | overall incidence of HFS [2] | patients reporting a severe form (grade 3) of HFS [2] [%]
Clc1cccc(Cl)c1NC1=NCCN1 [clonidine, N-(2,6-dichlorophenyl)-4,5-dihydro-1H-imidazol-2-amine] | decrease | decrease | decrease | – | –
CCCCCOC(=O)Nc1nc(=O)n([C@@H]2O[C@H](C)[C@@H](O)[C@H]2O)cc1F [capecitabine, N4-pentyloxycarbonyl-5'-deoxy-5-fluorocytidine] | – | – | – | around 50% | 17
